The target in the data set is human serum albumin (HSA) (Homo sapiens, UniProt P02768). Kind of data set: Albumin binding affinity, competition scintillation proximity assay. Background: SPA uses beads or plates that emit light when radiolabelled molecules are held near them.

Structures are written as SMILES. Starred links: 1 amine or outer side, 2 acyl side, 3 side chain; linkers in the order of their positions; H or OH if unused. Non-standard residues stand in square brackets, D forms with d. Residues, ends and D or L forms follow the SMILES beside them. Groups on a side chain read outwards from the residue. *: point of attachment. X1 = O=C(CCCCCCCCCCCCCCCc1nnn[nH]1)NS(=O)(=O)CCCC(=O)*; PEG12 = NCCOCCOCCOCCOCCOCCOCCOCCOCCOCCOCCOCCOCCC(=O)O; γGlu = O=C(O)[C@H](CCC(=O)[*:2])N[*:1]; AEEA = NCCOCCOCC(=O)O; Aib = CC(C)(N)C(=O)O; GABA = NCCCC(=O)O

Sequence of human serum albumin (HSA) (P02768 25-609): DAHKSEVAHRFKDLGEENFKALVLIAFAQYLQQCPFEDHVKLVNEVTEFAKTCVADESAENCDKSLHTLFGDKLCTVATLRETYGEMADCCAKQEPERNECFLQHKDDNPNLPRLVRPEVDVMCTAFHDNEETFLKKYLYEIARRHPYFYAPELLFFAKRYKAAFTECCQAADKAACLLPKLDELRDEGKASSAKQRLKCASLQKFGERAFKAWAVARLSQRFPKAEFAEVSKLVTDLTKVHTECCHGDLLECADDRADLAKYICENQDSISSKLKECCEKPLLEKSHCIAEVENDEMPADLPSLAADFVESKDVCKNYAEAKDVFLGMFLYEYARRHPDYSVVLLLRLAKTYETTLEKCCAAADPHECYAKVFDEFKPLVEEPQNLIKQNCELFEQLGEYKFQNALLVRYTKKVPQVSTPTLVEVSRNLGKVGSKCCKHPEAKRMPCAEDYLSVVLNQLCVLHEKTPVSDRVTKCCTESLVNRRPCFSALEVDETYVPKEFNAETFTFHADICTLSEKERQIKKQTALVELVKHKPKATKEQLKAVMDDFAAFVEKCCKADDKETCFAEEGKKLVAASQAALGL
Protocol: Streptavidin-SPA beads (GE Healthcare RPNQ0009) were incubated with biotinylated HSA for 5 hours. The beads were washed with buffer to remove unbound HSA. […] After 20 hours of gentle rocking at room temperature the plates were centrifuged and counted on a TopCounter.

For orientation: EC50 means the midpoint of the concentration-response curve. A low value points to a more potent agent. On to `CC[C@H](C)[C@H](NC(=O)[C@H](Cc1ccccc1)NC(=O)[C@H](CCC(=O)O)NC(=O)[C@H](CCCNC(=N)N)NC(=O)[C@H](C)NC(=O)[C@H](C)NC(=O)[C@H](CCC(N)=O)NC(=O)[C@H](CCC(=O)O)NC(=O)[C@H](CCC(=O)O)NC(=O)[C@H](CC(C)C)NC(=O)[C@H](Cc1ccc(O)cc1)NC(=O)[C@H](CO)NC(=O)[C@H](CO)NC(=O)[C@@H](NC(=O)[C@H](CC(=O)O)NC(=O)[C@H](CO)NC(=O)[C@@H](NC(=O)[C@H](Cc1ccccc1)NC(=O)[C@@H](NC(=O)CNC(=O)[C@H](CCC(=O)O)NC(=O)C(C)(C)NC(=O)[C@@H](N)Cc1c[nH]cn1)[C@@H](C)O)[C@@H](C)O)C(C)C)C(=O)N[C@@H](CCC(=O)O)C(=O)N[C@@H](Cc1c[nH]c2ccccc12)C(=O)N[C@@H](CC(C)C)C(=O)N[C@H](C(=O)N[C@@H](CCCCN)C(=O)NCC(=O)N[C@@H](CCCNC(=N)N)C(=O)N1CCC[C@H]1C(=O)N[C@@H](CCCCNC(=O)COCCOCCNC(=O)CC[C@H](NC(=O)CC[C@H](NC(=O)CCCNC(=O)CCCS(=O)(=O)NC(=O)CCCCCCCCCCCCCCCc1nnn[nH]1)C(=O)O)C(=O)O)C(=O)O)C(C)C` [Example 51, [Aib8,Glu22,Arg26,Glu30,Pro37]GLP-1-(7-37)Lys [2-(2-{2-[4-Carboxy-4-(4-carboxy-4-{4-[4-(16-1H-tetrazol-5-yl-hexadecanoylsulfamoyl)butyrylamino]butyrylamino}butyrylamino)butyrylamino]ethoxy}ethoxy)acetyl]] (H-H[Aib]EGTFTSDVSSYLEEQAAREFIEWLVKGRPK([AEEA-γGlu-γGlu-GABA-X1])-OH), for which, where the note is “human, biotinylated human serum albumin on streptavidin-SPA beads, pH 7.4”, the concentration for a half-maximal effect (EC50) at 20 h fell in the range of 150 to 300 nM. `CC[C@H](C)[C@H](NC(=O)[C@H](Cc1ccccc1)NC(=O)[C@H](CCC(=O)O)NC(=O)[C@H](CCCNC(=N)N)NC(=O)[C@H](C)NC(=O)[C@H](C)NC(=O)[C@H](CCC(N)=O)NC(=O)[C@H](CCC(=O)O)NC(=O)[C@H](CCC(=O)O)NC(=O)[C@H](CC(C)C)NC(=O)[C@H](Cc1ccc(O)cc1)NC(=O)[C@H](CO)NC(=O)[C@H](CO)NC(=O)[C@@H](NC(=O)[C@H](CC(=O)O)NC(=O)[C@H](CO)NC(=O)[C@@H](NC(=O)[C@H](Cc1ccccc1)NC(=O)[C@@H](NC(=O)CNC(=O)[C@H](CCC(=O)O)NC(=O)C(C)(C)NC(=O)[C@@H](N)Cc1c[nH]cn1)[C@@H](C)O)[C@@H](C)O)C(C)C)C(=O)N[C@@H](CCC(=O)O)C(=O)N[C@@H](Cc1c[nH]c2ccccc12)C(=O)N[C@@H](CC(C)C)C(=O)N[C@H](C(=O)N[C@@H](CCCCN)C(=O)NCC(=O)N[C@@H](CCCNC(=N)N)C(=O)N1CCC[C@H]1C(=O)N[C@@H](CCCCNC(=O)CCOCCOCCOCCOCCOCCOCCOCCOCCOCCOCCOCCOCCNC(=O)CC[C@H](NC(=O)CC[C@H](NC(=O)CCCNC(=O)CCCS(=O)(=O)NC(=O)CCCCCCCCCCCCCCCc1nnn[nH]1)C(=O)O)C(=O)O)C(=O)O)C(C)C` [Example 52] (H-H[Aib]EGTFTSDVSSYLEEQAAREFIEWLVKGRPK([PEG12-γGlu-γGlu-GABA-X1])-OH) showed an EC50 of 300 to 800 nM.
